Reference: patent US8063221B2, “Aminoquinolones as GSK-3 inhibitors” (Kyorin Pharmaceutical Co., Ltd., priority 2006, dated 2011)
Values after ≈ are worked out from the molar mass of the structure shown.

Key:
[1] = molecular target: T1, recombinant full-length human GSK3β (Homo sapiens, UniProt P49841); test: Luciferase-coupled cell-free GSK3β kinase assay; format: biochemical; conditions: Table 2
T1 construct: recombinant full-length human GSK3β (Upstate); purchased Upstate
Method: For compounds in Tables 1 and 2, IC50 (μM) for GSK3β enzyme in cell free assay is provided as follows:
Luciferase-Coupled Protein Kinase Assays
All coupled-luciferase assays are performed by using a brief incubation with firefly luciferase (Promega) after completion of the kinase assay. KinaseGlo Plus is used for reading kinase reactions with ATP>10 μM, KinaseGlo for ATP <10 μM. The assay volume in a 384-well plate for the kinase reaction is 30 microliters.
10-25 ng of recombinant full-length human GSK3β (Upstate) is incubated in the presence or absence of compound at varying concentrations for 1 hour at 30 degrees Celsius in 20 mM MOPS, pH 7.0, 10 mM magnesium acetate, 0.2 mM EDTA, 2 mM EGTA, 30 mM magnesium chloride, 62.5 μM phospho-glycogen synthase peptide-2, 5 μM ATP, 10 mM β-glycerol phosphate, 1 mM sodium orthovanadate and 1 mM dithiothreitol. Proceed to KinaseGlo luciferase reaction (see below).
Following the completion of the kinase reaction an equal volume of KinaseGlo or KinaseGlo Plus luciferase reagent (Promega) is added and the luminescence read using a luminescence plate reader within 5-10 minutes. Compound activity is expressed as % inhibition relative to maximal inhibition observed at the maximal dose and IC50 values then calculated using curve fitting software (GraphPad Prizm).

[2] = test system: S. aureus Smith; test: Antibacterial activity (MIC), S. aureus; format: cell-based; conditions: Staphylococcus aureus, Table 2; S. aureus Smith; read-out: Antimicrobial MIC [μM] S. aureus
Excerpt: (§1) As used herein, a minimum inhibitory concentration (MIC) for bacterial growth assay is the lowest level of a compound needed to cause an inhibition to bacterial growth in culture medium. In certain embodiments, the antibacterial activity of compounds herein, measured as MIC.
(§2) In certain embodiments, GSK3 inhibitors provided herein are substantially free of antibacterial activity or having very low antibacterial activity. The antibacterial activity can be measured by methods known in the art by estimating a minimum inhibitory concentration (MIC) for test compounds. A MIC is the lowest level of a compound needed to cause an inhibition to bacterial growth in a culture medium. […] (Clinical and Laboratory Standards Institute. Methods for Dilution Antimicrobial Susceptibility Tests for Bacteria That Grow Aerobically; Approved Standard-Sixth Edition: CLSI document […]. CLSI, Wayne, Pa. (2003))
(§3) Antibacterial activity for E. coli, ATCC8739 andS. aureus Smith expressed as MIC (μM) is provided as follows: […]

[3] = test system: E. coli, ATCC8739; test: Antibacterial activity (MIC), E. coli; format: cell-based; conditions: Escherichia coli, ATCC8739, Table 2; E. coli ATCC8739; read-out: Antimicrobial MIC [μM] E. Coli
Excerpt: as §1, §2, §3

T1 sequence (P49841 whole entry): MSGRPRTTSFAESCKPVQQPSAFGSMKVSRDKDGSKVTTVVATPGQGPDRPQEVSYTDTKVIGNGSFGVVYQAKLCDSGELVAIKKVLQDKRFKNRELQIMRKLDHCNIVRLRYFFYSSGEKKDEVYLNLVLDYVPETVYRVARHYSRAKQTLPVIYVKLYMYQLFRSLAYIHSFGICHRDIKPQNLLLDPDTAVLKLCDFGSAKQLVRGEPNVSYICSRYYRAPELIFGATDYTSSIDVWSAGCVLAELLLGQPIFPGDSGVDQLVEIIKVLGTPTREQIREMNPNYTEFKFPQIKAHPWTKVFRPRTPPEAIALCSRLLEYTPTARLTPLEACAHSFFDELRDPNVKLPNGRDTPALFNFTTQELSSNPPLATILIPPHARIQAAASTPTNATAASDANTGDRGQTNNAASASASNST

Structure (SMILES)	IC50 [1]	MIC [2]	MIC [3]
COc1c(NCCNc2ccccn2)c(F)c(N)c2c(=O)c(C(=O)O)c(C)n(C3CC3)c12 [Example 123]	< 0.1 µM	> 50 µM	> 50 µM
CCOC(=O)CCNc1c(F)c(N)c2c(=O)ccn(C3CC3)c2c1OC [Example 125]	0.1 to 0.5 µM	> 50 µM	> 50 µM
COc1c(NCCNc2ccccn2)c(F)c(N)c2c(=O)c(C(=O)O)cn(C)c12 [Example 129]	0.1 to 0.5 µM	10 to 50 µM (≈ 4.01 to 20.1 µg/mL)	10 to 50 µM (≈ 4.01 to 20.1 µg/mL)
Nc1c(F)c(NCCNc2ccccn2)cc2c1c(=O)c(C(=O)O)cn2C1CCOCC1 [Example 135]	< 0.1 µM	10 to 50 µM (≈ 4.41 to 22.1 µg/mL)	10 to 50 µM (≈ 4.41 to 22.1 µg/mL)
Nc1c(F)c(NCCNc2ccccn2)c(F)c2c1c(=O)cc(C(=O)O)n2C1CC1 [Example 136]	> 1 µM	> 50 µM	> 50 µM
COc1c(NCCNc2ccc(C(=O)O)cn2)c(F)c(N)c2c(=O)ccn(C3CC3)c12 [Example 137]	< 0.1 µM	> 50 µM	> 50 µM
COc1c(NCCNc2ccc(C(=O)O)cn2)c(F)c(N)c2c(=O)c(C(=O)O)cn(C3CC3)c12 [Example 138]	< 0.1 µM	> 50 µM	> 50 µM
NC1=C2C(=O)C(C(=O)O)=CN3CCCCOC(C(NCCNc4ccccn4)=C1F)C23 (centres unmarked) [Example 140]	0.5 to 1 µM	> 50 µM	> 50 µM
COc1c(NCCNc2ccccn2)c(F)c(N)c2c(=O)c(C#N)cn(C3CC3)c12 [Example 142]	< 0.1 µM	> 50 µM	> 50 µM
COc1c(NCCCc2ccccc2)c(F)c(N)c2c(=O)ccn(C3CC3)c12 [compound 1]	0.1 to 0.5 µM	10 to 50 µM (≈ 3.81 to 19.1 µg/mL)	10 to 50 µM (≈ 3.81 to 19.1 µg/mL)

The remaining lines, values ahead:

IC50 [1]	MIC [2]	MIC [3]	Structure (SMILES)
< 0.1 µM	10 to 50 µM (≈ 4.17 to 20.9 µg/mL)	10 to 50 µM (≈ 4.17 to 20.9 µg/mL)	C[C@H]1COc2c(NCCCC3CCCCC3)c(F)c(N)c3c(=O)c(C(=O)O)cn1c23 [Example 103]
0.1 to 0.5 µM	10 to 50 µM (≈ 4.9 to 24.5 µg/mL)	10 to 50 µM (≈ 4.9 to 24.5 µg/mL)	Nc1c(F)c(NCCNc2ccccn2)c2c3c1c(=O)c(C(=O)O)cn3[C@@H](Cc1ccccc1)CO2 [Example 120]
< 0.1 µM	0.5 to 10 µM (≈ 0.222 to 4.44 µg/mL)	10 to 50 µM (≈ 4.44 to 22.2 µg/mL)	COc1c(NCCNc2ccccn2)c(Cl)c(N)c2c(=O)c(C(=O)O)cn(C3CC3)c12 [Example 121]
0.5 to 1 µM	0.5 to 10 µM (≈ 0.204 to 4.07 µg/mL)	10 to 50 µM (≈ 4.07 to 20.4 µg/mL)	CCOC(=O)CCNc1c(F)c(N)c2c(=O)c(C(=O)O)cn(C3CC3)c2c1OC [Example 122]
0.1 to 0.5 µM	10 to 50 µM (≈ 4.75 to 23.8 µg/mL)	10 to 50 µM (≈ 4.75 to 23.8 µg/mL)	Nc1c(F)c(NCCNc2ccccn2)c2c3c1c(=O)c(C(=O)O)cn3[C@@H](c1ccccc1)CO2 [Example 124]
> 1 µM	0.5 to 10 µM (≈ 0.214 to 4.27 µg/mL)	0.5 to 10 µM (≈ 0.214 to 4.27 µg/mL)	Nc1c(F)c(NC(=O)CCc2ccccc2)c(F)c2c1c(=O)c(C(=O)O)cn2C1CC1 [Example 126]
0.1 to 0.5 µM	0.5 to 10 µM (≈ 0.235 to 4.7 µg/mL)	10 to 50 µM (≈ 4.7 to 23.5 µg/mL)	Cc1c(C(=O)O)c(=O)c2c(N)c(F)c(NCCNc3ccccn3)c(OC(C)C)c2n1C1CC1 [Example 127]
–	0.5 to 10 µM (≈ 0.223 to 4.46 µg/mL)	0.5 to 10 µM (≈ 0.223 to 4.46 µg/mL)	CSc1c(F)c(NCCNc2ccccn2)c(F)c2c1c(=O)c(C(=O)O)cn2C1CC1 [Example 128]
> 1 µM	0.5 to 10 µM (≈ 0.239 to 4.77 µg/mL)	0.5 to 10 µM (≈ 0.239 to 4.77 µg/mL)	COc1c(NCCNc2ccccn2)c(F)c(N)c2c(=O)c(C(=O)O)cn(Cc3ccccc3)c12 [Example 130]
< 0.1 µM	0.5 to 10 µM (≈ 0.216 to 4.32 µg/mL)	0.5 to 10 µM (≈ 0.216 to 4.32 µg/mL)	O=C(O)c1cn(C2CC2)c2c(F)c(NCCNc3ccccn3)c(F)c(S)c2c1=O [Example 131]
> 1 µM	< 0.5 µM	0.5 to 10 µM (≈ 0.214 to 4.28 µg/mL)	COc1c(OCCNc2ccccn2)c(F)c(N)c2c(=O)c(C(=O)O)cn(C3CC3)c12 [Example 132]
< 0.1 µM	< 0.5 µM	0.5 to 10 µM (≈ 0.199 to 3.97 µg/mL)	Nc1c(F)c(NCCNc2ccccn2)cc2c1c(=O)c(C(=O)O)cn2C1CC1 [Example 133]
< 0.1 µM	< 0.5 µM	< 0.5 µM	Nc1c(F)c(NCCNc2ccccn2)c2c3c1c(=O)c(C(=O)O)cn3[C@@H](CF)CO2 [Example 134]
< 0.1 µM	0.5 to 10 µM (≈ 0.252 to 5.04 µg/mL)	0.5 to 10 µM (≈ 0.252 to 5.04 µg/mL)	COc1c(NCCNc2ccccn2)c(F)c(NC(=O)C(F)(F)F)c2c(=O)c(C#N)cn(C3CC3)c12 [Example 141]
